Tests used:
[1] = target: T1, chimeric P2X7/1 receptor 164–168 (Homo sapiens, UniProt Q99572, A166G/I21V/M24R/N16P/N25R/Q22R/R20V/S165F/S23N/T19I/V164I/Y26L); assay: Two-electrode voltage clamp of ATP-evoked currents in Xenopus oocytes; assay type: cell-based; conditions: chimera 164–168; for IC50: inhibition of EC90 ATP response
T1 construct: expressed in transfected cells; host or cells: Xenopus laevis oocytes (cRNA injection)
T1 sequence (Q99572 1-595 N16P/T19I/R20V/I21V/Q22R/S23N/M24R/N25R/Y26L/V164I/S165F/A166G): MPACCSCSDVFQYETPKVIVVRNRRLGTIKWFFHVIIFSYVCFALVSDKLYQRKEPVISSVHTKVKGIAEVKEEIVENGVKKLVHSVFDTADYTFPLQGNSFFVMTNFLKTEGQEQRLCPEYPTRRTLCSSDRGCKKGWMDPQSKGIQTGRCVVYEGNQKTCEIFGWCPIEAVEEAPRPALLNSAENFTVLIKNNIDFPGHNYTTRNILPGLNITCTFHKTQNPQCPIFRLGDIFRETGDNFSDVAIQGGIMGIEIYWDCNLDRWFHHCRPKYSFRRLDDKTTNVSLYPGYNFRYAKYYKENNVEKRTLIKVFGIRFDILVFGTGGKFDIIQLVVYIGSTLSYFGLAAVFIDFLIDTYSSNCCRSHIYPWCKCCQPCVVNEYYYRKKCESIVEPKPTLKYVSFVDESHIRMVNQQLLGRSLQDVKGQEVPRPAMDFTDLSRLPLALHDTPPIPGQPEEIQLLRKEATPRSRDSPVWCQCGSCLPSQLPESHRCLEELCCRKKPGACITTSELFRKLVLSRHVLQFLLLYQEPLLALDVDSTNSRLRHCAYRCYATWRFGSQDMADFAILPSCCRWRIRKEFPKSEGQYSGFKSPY
Protocol: (§1) Additional point mutants were made using the QuikChange mutagenesis kit (Stratagene California, La Jolla, CA). The production of the correct mutations and absence of coding errors was determined by DNA sequencing (Automated ABI Sequencing Service, University of Leicester, UK). cRNA was generated for the mutants and 50 nl (50 ng) was injected into manually defoliculated stage V Xenopus laevis oocytes using an Inject+Matic microinjector (J.A. Gabay, Inject+Matic, Geneva, Switzerland). Injected oocytes were stored at 16°C in ND96 buffer [in millimolar concentrations, NaCl 96, KCl 2, CaCl2 1.8, MgCl2 1, sodium pyruvate 5, and HEPES 5 (pH 7.6) supplemented with 50 μg/ml gentamycin and 50 μg/ml tetracycline]. Three to seven days postinjection two-electrode voltage clamp recordings were made from oocytes bathed in divalent-free ND96 buffer (in millimolar concentrations, NaCl 96, KCl 2, sodium pyruvate 5, HEPES 5, and 0.1 flufenamic acid, pH 7.6). Oocytes were voltage clamped at a holding potential of −60 mV with a GeneClamp500B amplifier (Molecular Devices).
(§2) Inhibition by the antagonists was expressed as the percentage of the peak current amplitude of an EC90 concentration of ATP recorded before the application of antagonist (ATP gave reproducible responses to ATP in the absence of antagonist). Inhibition curves were fitted with the Hill equation (variable slope) using GraphPad Prism 6 (GraphPad Software, San Diego, CA). […] Individual concentration-response curves were generated for individual experiments, and statistical analysis was carried out on the data generated. When shown in figures, the inhibition curves are fitted to the mean normalized data. […] Data are shown as mean ± S.E.M. In all cases n ≥ 3 for all data points.

P2X7R point mutant V312A = target: T2, P2X7R point mutant V312A (Homo sapiens, UniProt Q99572, I21V/M24R/N16P/N25R/Q22R/R20V/S23N/T19I/V312A/Y26L); assay: cell-based
T2 construct: expressed in transfected cells; host or cells: Xenopus laevis oocytes (cRNA injection)
Protocol: (§3) Injected oocytes were stored at 16°C in ND96 buffer [in millimolar concentrations, NaCl 96, KCl 2, CaCl2 1.8, MgCl2 1, sodium pyruvate 5, and HEPES 5 (pH 7.6) supplemented with 50 μg/ml gentamycin and 50 μg/ml tetracycline]. Three to seven days postinjection two-electrode voltage clamp recordings were made from oocytes bathed in divalent-free ND96 buffer (in millimolar concentrations, NaCl 96, KCl 2, sodium pyruvate 5, HEPES 5, and 0.1 flufenamic acid, pH 7.6). Oocytes were voltage clamped at a holding potential of −60 mV with a GeneClamp500B amplifier (Molecular Devices).
(§4) Inhibition by the antagonists was expressed as the percentage of the peak current amplitude of an EC90 concentration of ATP recorded before the application of antagonist (ATP gave reproducible responses to ATP in the absence of antagonist). Inhibition curves were fitted with the Hill equation (variable slope) using GraphPad Prism 6 (GraphPad Software, San Diego, CA). […] Individual concentration-response curves were generated for individual experiments, and statistical analysis was carried out on the data generated. […] Data are shown as mean ± S.E.M. In all cases n ≥ 3 for all data points.

P2X7R point mutant S86A = target: T3, P2X7R point mutant S86A (Homo sapiens, UniProt Q99572, I21V/M24R/N16P/N25R/Q22R/R20V/S23N/S86A/T19I/Y26L); assay: Two-electrode voltage clamp of ATP-evoked currents in Xenopus oocytes; assay type: cell-based; conditions: EC90 ATP, mean ± S.E.M.
T3 construct: expressed in transfected cells; host or cells: Xenopus laevis oocytes (cRNA injection)
Protocol: as §1
(§5) Inhibition by the antagonists was expressed as the percentage of the peak current amplitude of an EC90 concentration of ATP recorded before the application of antagonist (ATP gave reproducible responses to ATP in the absence of antagonist). […]

P2X7R point mutant L83A = target: T4, P2X7R point mutant L83A (Homo sapiens, UniProt Q99572, I21V/L83A/M24R/N16P/N25R/Q22R/R20V/S23N/T19I/Y26L); assay: as above; assay type: cell-based; conditions: EC90 ATP, mean ± S.E.M.
T4 construct: expressed in transfected cells; host or cells: Xenopus laevis oocytes (cRNA injection)
Protocol: as §3, §4

P2X7R point mutant T90V = target: T5, P2X7R point mutant T90V (Homo sapiens, UniProt Q99572, I21V/M24R/N16P/N25R/Q22R/R20V/S23N/T19I/T90V/Y26L); assay: as above; assay type: cell-based; conditions: EC90 ATP, mean ± S.E.M.
T5 construct: expressed in transfected cells; host or cells: Xenopus laevis oocytes (cRNA injection)
Protocol: as §1, §5

P2X7R point mutant S165F = target: T6, P2X7R point mutant S165F (Homo sapiens, UniProt Q99572, I21V/M24R/N16P/N25R/Q22R/R20V/S165F/S23N/T19I/Y26L); assay: as above; assay type: cell-based; conditions: EC90 ATP, mean ± S.E.M.
T6 construct: expressed in transfected cells; host or cells: Xenopus laevis oocytes (cRNA injection)
Protocol: as §3, §2

P2X7R mutant Insert G99 = target: T7, P2X7R mutant Insert G99 (Homo sapiens, UniProt Q99572, I21V/INS99D/M24R/N16P/N25R/Q22R/R20V/S23N/T19I/Y26L); assay: as above; assay type: cell-based; conditions: EC90 ATP, mean ± S.E.M.
T7 construct: expressed in transfected cells; host or cells: Xenopus laevis oocytes (cRNA injection)
T7 sequence (Q99572 with tags, fused parts or gaps N16P/T19I/R20V/I21V/Q22R/S23N/M24R/N25R/Y26L/INS99D): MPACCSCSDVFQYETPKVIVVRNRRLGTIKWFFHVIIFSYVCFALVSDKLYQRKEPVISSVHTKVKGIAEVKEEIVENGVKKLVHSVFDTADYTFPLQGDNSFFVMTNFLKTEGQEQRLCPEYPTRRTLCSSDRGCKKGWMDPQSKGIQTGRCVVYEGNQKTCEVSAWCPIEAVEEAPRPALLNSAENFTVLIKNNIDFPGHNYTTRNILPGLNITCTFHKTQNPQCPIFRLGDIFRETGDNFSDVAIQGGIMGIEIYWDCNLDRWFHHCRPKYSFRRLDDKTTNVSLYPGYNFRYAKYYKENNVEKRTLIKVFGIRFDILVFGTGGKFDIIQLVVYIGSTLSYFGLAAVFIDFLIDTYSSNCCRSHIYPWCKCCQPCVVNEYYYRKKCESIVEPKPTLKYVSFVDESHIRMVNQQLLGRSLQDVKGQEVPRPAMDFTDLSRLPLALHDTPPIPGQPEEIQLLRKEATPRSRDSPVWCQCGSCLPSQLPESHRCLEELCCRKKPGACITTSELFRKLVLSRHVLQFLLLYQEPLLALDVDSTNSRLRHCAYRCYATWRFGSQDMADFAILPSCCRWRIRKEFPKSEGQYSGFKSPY
Protocol: as §3, §2

[2] = target: T8, chimeric P2X7/1 receptor 122–128 (Homo sapiens, UniProt Q99572, DEL124-124/I21V/L128I/M24R/N16P/N25R/Q22R/R125E/R126G/R20V/S23N/T127G/T19I/Y122H/Y26L); assay: as above; assay type: cell-based
T8 construct: expressed in transfected cells; host or cells: Xenopus laevis oocytes (cRNA injection)
T8 sequence (Q99572 with tags, fused parts or gaps N16P/T19I/R20V/I21V/Q22R/S23N/M24R/N25R/Y26L/Y122H/DEL124-124/R125E/R126G/T127G/L128I): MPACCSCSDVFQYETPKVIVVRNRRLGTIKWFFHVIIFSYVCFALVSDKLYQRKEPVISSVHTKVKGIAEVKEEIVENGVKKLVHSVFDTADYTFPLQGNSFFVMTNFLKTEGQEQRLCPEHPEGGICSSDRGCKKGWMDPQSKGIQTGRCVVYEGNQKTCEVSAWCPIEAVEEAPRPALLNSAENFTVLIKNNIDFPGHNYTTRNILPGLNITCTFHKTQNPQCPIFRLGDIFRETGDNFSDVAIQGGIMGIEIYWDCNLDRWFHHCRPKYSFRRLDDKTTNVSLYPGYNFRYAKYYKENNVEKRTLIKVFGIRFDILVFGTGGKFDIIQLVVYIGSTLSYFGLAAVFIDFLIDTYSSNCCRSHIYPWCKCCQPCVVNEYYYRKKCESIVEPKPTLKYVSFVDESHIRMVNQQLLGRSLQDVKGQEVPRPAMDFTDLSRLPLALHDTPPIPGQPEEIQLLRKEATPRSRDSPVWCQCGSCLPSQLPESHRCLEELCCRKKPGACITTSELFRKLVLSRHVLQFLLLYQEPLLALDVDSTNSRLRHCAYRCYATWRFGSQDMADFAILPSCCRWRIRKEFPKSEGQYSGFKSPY
Protocol: as §1, §4

P2X7R point mutant F88A = target: T9, P2X7R point mutant F88A (Homo sapiens, UniProt Q99572, F88A/I21V/M24R/N16P/N25R/Q22R/R20V/S23N/T19I/Y26L); assay: as above; assay type: cell-based; conditions: EC90 ATP, mean ± S.E.M.
T9 construct: expressed in transfected cells; host or cells: Xenopus laevis oocytes (cRNA injection)
Protocol: as §1, §5

[3] = target: T10, chimeric P2X7/1 receptor 112–118 (Homo sapiens, UniProt Q99572, E112P/E115T/G113K/I21V/L118Y/M24R/N16P/N25R/Q22R/R117G/R20V/S23N/T19I/Y26L); assay: cell-based; assay type: cell-based
T10 construct: expressed in transfected cells; host or cells: Xenopus laevis oocytes (cRNA injection)
T10 sequence (Q99572 whole entry N16P/T19I/R20V/I21V/Q22R/S23N/M24R/N25R/Y26L/E112P/G113K/E115T/R117G/L118Y): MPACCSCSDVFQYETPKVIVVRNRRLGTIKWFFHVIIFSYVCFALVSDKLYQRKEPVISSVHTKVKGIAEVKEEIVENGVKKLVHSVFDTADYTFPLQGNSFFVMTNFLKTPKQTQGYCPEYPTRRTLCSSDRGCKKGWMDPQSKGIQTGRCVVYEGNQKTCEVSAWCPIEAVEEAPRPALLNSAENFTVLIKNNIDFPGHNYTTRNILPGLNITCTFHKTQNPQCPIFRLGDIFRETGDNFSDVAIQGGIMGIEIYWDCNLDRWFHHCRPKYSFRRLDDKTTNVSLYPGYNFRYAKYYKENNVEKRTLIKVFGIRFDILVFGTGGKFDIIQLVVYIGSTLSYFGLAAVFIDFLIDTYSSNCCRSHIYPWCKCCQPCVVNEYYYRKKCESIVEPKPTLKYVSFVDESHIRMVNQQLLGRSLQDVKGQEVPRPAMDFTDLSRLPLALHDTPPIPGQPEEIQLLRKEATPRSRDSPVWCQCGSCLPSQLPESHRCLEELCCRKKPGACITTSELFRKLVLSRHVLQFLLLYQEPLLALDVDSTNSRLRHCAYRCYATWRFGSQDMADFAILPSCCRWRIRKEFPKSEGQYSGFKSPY
Protocol: as §1, §4

T6 sequence (Q99572 whole entry N16P/T19I/R20V/I21V/Q22R/S23N/M24R/N25R/Y26L/S165F): as the sequence (Q99572 whole entry N16P/T19I/R20V/I21V/Q22R/S23N/M24R/N25R/Y26L/E112P/G113K/E115T/R117G/L118Y) above, with P112E, K113G, T115E, G117R, Y118L, S165F counted along it
T9 sequence (Q99572 whole entry N16P/T19I/R20V/I21V/Q22R/S23N/M24R/N25R/Y26L/F88A): as the sequence (Q99572 whole entry N16P/T19I/R20V/I21V/Q22R/S23N/M24R/N25R/Y26L/E112P/G113K/E115T/R117G/L118Y) above, with F88A, P112E, K113G, T115E, G117R, Y118L counted along it
T3 sequence (Q99572 whole entry N16P/T19I/R20V/I21V/Q22R/S23N/M24R/N25R/Y26L/S86A): as the sequence (Q99572 whole entry N16P/T19I/R20V/I21V/Q22R/S23N/M24R/N25R/Y26L/E112P/G113K/E115T/R117G/L118Y) above, with S86A, P112E, K113G, T115E, G117R, Y118L counted along it
T5 sequence (Q99572 whole entry N16P/T19I/R20V/I21V/Q22R/S23N/M24R/N25R/Y26L/T90V): as the sequence (Q99572 whole entry N16P/T19I/R20V/I21V/Q22R/S23N/M24R/N25R/Y26L/E112P/G113K/E115T/R117G/L118Y) above, with T90V, P112E, K113G, T115E, G117R, Y118L counted along it
T4 sequence (Q99572 whole entry N16P/T19I/R20V/I21V/Q22R/S23N/M24R/N25R/Y26L/L83A): as the sequence (Q99572 whole entry N16P/T19I/R20V/I21V/Q22R/S23N/M24R/N25R/Y26L/E112P/G113K/E115T/R117G/L118Y) above, with L83A, P112E, K113G, T115E, G117R, Y118L counted along it
T2 sequence (Q99572 whole entry N16P/T19I/R20V/I21V/Q22R/S23N/M24R/N25R/Y26L/V312A): as the sequence (Q99572 whole entry N16P/T19I/R20V/I21V/Q22R/S23N/M24R/N25R/Y26L/E112P/G113K/E115T/R117G/L118Y) above, with P112E, K113G, T115E, G117R, Y118L, V312A counted along it

SMILES | fold decrease in antagonist sensitivity relative to P2X7-2Nβ [1] | IC50 [1] | IC50 (P2X7R point mutant V312A) | IC50 (P2X7R point mutant S86A) | IC50 (P2X7R point mutant L83A) | IC50 (P2X7R point mutant T90V) | IC50 (P2X7R point mutant S165F) | IC50 (P2X7R mutant Insert G99) | IC50 [2] | effect on antagonist potency relative to P2X7-2Nβ ([2]; chimera 122–128) | IC50 (P2X7R point mutant F88A) | IC50 [3]
COc1ccc(CC(=O)NC(N=C(NC#N)Nc2cccc3ncccc23)C(C)(C)C)cc1OC (stereo not shown) [A740003, N-[1-[[(cyanoamino)(5-quinolinylamino)methylene]amino]-2,2-dimethylpropyl]-3,4-dimethoxybenzeneacetamide] | ~5 fold | 0.398 µM | 398 nM | 79.4 nM | 316 nM | 398 nM | 0.2 µM | 1.58 µM | 100 nM | no effect | 5.01 µM | 251 nM
Cl.Clc1cccc(-c2nnnn2Cc2cccnc2)c1Cl.O [A438079, 3-(5-(2,3-dichlorophenyl)-1H-tetrazol-1-yl)methyl pyridine hydrochloride hydrate] | – | 10 µM | 5010 nM | 1000 nM | 794 nM | 5010 nM | 7.94 µM | 12.6 µM | 794 nM | – | > 100 µM | 3160 nM

Source: paper PMC5896373 (Molecular Pharmacology, 2018)
